Where two headings read alike, the source gives them in different places.
Assays:
CYP3A4 = CYP3A4 (Homo sapiens, UniProt P08684); assay: Determination of CYP3A4 inhibitory activity (human liver microsome, Luciferin-IPA)
Summary of the method: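 Final compound concentrations 37, 111, 333, 1000 and 3000 nM; reaction at 37° C for 11 min, then luciferin detection reagent 5 min at room temperature with luminescence read-out. IC50 from nonlinear regression of dose-response.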

P-glycoprotein = target: T1, P-glycoprotein (Homo sapiens, UniProt P08183); assay: Determination of P-glycoprotein inhibitory activity (MTT cell growth, MES-SA/DX5 cells with docetaxel or paclitaxel); assay type: cell-based; conditions: compound + 100 nM docetaxel or 200 nM paclitaxel, 3 days
T1 construct: A P-glycoprotein overexpressing cell line derived from the human uterine sarcoma cell line MES-SA; host or cells: MES-SA/DX5 (human uterine sarcoma, doxorubicin-selected)
T1 sequence (P08183 whole entry): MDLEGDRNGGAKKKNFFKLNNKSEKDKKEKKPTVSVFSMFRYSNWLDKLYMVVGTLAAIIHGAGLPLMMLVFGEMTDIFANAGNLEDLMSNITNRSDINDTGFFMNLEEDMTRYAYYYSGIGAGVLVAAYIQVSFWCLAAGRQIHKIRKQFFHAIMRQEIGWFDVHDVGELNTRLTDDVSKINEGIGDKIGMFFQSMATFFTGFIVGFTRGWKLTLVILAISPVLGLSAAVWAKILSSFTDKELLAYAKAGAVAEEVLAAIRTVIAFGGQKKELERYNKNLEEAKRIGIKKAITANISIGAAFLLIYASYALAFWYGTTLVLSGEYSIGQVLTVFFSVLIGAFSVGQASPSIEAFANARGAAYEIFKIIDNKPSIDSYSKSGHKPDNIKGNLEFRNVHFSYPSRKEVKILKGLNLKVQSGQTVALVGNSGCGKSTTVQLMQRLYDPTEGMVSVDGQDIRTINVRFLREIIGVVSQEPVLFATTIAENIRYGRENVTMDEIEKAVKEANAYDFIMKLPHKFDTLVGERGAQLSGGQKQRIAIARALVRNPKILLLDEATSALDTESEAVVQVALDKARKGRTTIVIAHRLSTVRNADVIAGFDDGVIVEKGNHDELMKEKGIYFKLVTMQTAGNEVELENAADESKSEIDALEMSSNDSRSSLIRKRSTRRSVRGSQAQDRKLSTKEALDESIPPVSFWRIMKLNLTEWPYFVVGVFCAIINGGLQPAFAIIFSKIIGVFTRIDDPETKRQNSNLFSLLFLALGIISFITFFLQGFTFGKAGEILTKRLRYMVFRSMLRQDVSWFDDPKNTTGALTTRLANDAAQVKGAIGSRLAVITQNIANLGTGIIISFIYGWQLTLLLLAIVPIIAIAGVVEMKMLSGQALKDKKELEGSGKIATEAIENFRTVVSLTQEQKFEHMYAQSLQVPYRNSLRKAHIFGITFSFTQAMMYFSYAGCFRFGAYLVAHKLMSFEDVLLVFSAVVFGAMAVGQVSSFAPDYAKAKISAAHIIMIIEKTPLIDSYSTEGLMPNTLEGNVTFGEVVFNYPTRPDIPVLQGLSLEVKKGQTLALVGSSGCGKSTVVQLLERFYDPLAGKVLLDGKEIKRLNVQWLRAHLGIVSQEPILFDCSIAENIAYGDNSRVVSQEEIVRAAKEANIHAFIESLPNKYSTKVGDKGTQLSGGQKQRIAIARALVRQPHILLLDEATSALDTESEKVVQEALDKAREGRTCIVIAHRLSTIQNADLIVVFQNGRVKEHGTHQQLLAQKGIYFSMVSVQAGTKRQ
Description: A P-glycoprotein overexpressing cell line derived from the human uterine sarcoma cell line MES-SA (i.e., MES-SA/DX5 cells (ATCC)) was seeded by stepwise exposures to increasing concentrations of doxorubicin, in a 96-well plate at 6,500 cells/100 μL media (McCoy's 5A+10% FBS) in each well. The cells were incubated overnight at 37° C., 5% CO2. […] DMSO was used as a negative control and known P-glycoprotein inhibitor, encequidar methane sulfonic acid monohydrate (HM30181A), was used as a positive control. […] Treated cells were incubated for 3 days at 37° C., 5% CO2.
To value (reflecting the starting number of cells upon Compound treatment) of 3 wells of cells was determined by performing the following steps 1-4 as described below.
1. 10 μL MTT (5 mg/mL in PBS) was added to each well and incubated for 1.5 hours at 37° C., 5% CO2.
2. Culture media was removed and 100 μL of DMSO was added to each well.
3. The plate was gently shook until all purple MTT formazan crystals were dissolved. OD540 was then measured using microplate reader.
4. Cell growth percentage was calculated with the following equation:
Cell growth percentage=(T−T0)/(C−T0)×100%,

[1] = Oral absorption of docetaxel in mice (plasma pharmacokinetics of oral docetaxel co-dosed with compound); assay type: in vivo; conditions: CD-1 mice
Description: In vivo activity of the compounds of the present disclosure was performed as follows: Eighteen 7- to 9-week-old CD-1 mice were fasted overnight prior to drug administration while they were allowed free access to water and were fed 4 hours post dosing. Mice were divided into four groups of three to five […] each.
Blood samples (approx. 30-50 μL) were obtained via peripheral veins of each mouse before (0) and 0.25, 0.5, 1, 2, 4, and 8 hours after docetaxel administration for control group (entry 1, Table C) and at 0.25, 0.5, 1, 2, 4, and 8 hours after docetaxel administration for rest of the groups (entries 2-4, Table C). Blood samples were treated with EDTA-K2 as anti-coagulant and placed on ice until centrifugation. Each blood sample was centrifuged at 4° C., 3000 g for 15 min within 0.5 hour from plasma collection. An aliquot of 20 μL plasma sample was protein precipitated with 100 μL IS (Internal Standard) solution (100 ng/mL labetalol+100 ng/mL tolbutamide in acetonitrile, 1:1), the mixture was vortex-mixed and centrifuged at 4000 rpm for 15 min at 4° C. An aliquot of 80 μL sample was transferred to a sample plate and mixed with 80 μL water, then the plate was shook at 800 rpm for 10 min. 1-10 μL of the supernatant was then injected for LC-MS/MS analysis under the following conditions:
MS conditions: ESI, positive;
Column: Waters ACQUITY UPLC BEH C18 2.1×50 mm, 1.7 μm;
Mobile phase A: 0.1% formic acid in water; and
Mobile phase B: 0.1% formic acid in acetonitrile.

[2] = CYP3A4 IC50 (nM), 37° C. 11 minutes
[3] = oral docetaxel 10 mg/kg with oral compound (Compound 16 80 mg/kg, Compound 48 20 mg/kg, encequidar 10 mg/kg), plasma

Chain of CYP3A4 (P08684 whole entry): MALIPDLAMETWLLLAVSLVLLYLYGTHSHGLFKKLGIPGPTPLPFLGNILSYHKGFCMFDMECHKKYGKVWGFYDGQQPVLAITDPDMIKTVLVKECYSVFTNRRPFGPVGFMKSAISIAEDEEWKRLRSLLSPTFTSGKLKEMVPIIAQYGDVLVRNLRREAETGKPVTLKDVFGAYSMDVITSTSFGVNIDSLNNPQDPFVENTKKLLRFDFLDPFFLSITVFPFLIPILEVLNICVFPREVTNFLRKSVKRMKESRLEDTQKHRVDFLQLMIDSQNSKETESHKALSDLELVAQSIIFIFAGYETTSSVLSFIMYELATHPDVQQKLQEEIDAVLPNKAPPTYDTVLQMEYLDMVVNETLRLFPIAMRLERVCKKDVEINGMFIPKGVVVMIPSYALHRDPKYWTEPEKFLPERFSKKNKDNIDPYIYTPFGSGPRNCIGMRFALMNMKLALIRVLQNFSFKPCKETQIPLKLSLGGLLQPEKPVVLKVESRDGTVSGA

Row | IC50 (CYP3A4; [2]) [nM] | SMILES | further results
1 | 250 to 500 | COc1cncc(CN(CCc2ccc(NC(=O)c3ccc(C(=O)OCCN4CCN(C)CC4)cc3NC(=O)c3cc(=O)c4ccccc4o3)cc2)Cc2ccc3c(cnn3C)c2)c1 [Compound 272] | –
2 | > 1000 | COC(=O)c1ccc(C(=O)Nc2ccc(CCN(C)Cc3ccc4c(cnn4C)c3)cc2)c(NC(=O)c2ccccn2)c1 [Compound 277] | –
3 | 250 to 500 | COc1cncc(CN(CCc2ccc(NC(=O)c3ccc(C(=O)NS(=O)(=O)N(C)C)cc3NC(=O)c3cc(=O)c4ccccc4o3)cc2)Cc2ccc3c(cnn3C)c2)c1 [Compound 278] | –
4 | 100 to 250 | CN(CCc1ccc(NC(=O)c2ccc(C(=O)OCc3cscn3)cc2NC(=O)c2cc(=O)c3ccccc3o2)cc1)Cc1ccc2c(cnn2C)c1 [Compound 280] | –
5 | > 1000 | COC(=O)c1ccc(C(=O)Nc2ccc(CCN(C)Cc3ccc4c(cnn4C)c3)cc2)c(NC(=O)c2cnc3ccccc3c2)c1 [Compound 281] | –
6 | 500 to 1000 | CN(CCc1ccc(NC(=O)c2ccc(C(=O)OCc3cncs3)cc2NC(=O)c2cnc3ccccc3c2)cc1)Cc1ccc2c(cnn2C)c1 [Compound 283] | –
7 | – | COc1cc2c(cc1OC)CN(CCc1ccc(-n3nnc(-c4cc(OC)c(OC)cc4NC(=O)c4cc(=O)c5ccccc5o4)n3)cc1)CC2.CS(=O)(=O)O.O [encequidar methane sulfonic acid monohydrate] | IC50 (CYP3A4; read-out: CYP3A4 IC50, 37° C. 11 minutes): > 1000 nM; EC50 (P-glycoprotein): < 100 nM; AUC0-inf of oral docetaxel (area under the curve of plasma concentration) [1, 3]: 698 ± 238 ng·h/mL; Cmax of oral docetaxel (maximum plasma concentration) [1, 3]: 316 ± 98.1 ng/mL; Tmax of oral docetaxel (time at the maximum plasma concentration) [1, 3]: 42 ± 16.4 min; increase in the systemic bioavailability of orally dosed docetaxel ([1]; as compared to when there was no inhibitor): 3.4 fold
